Source: the CheMixHub viscosity set
Where “and” joins values, the source holds several entries; their conditions need not be identical. Identical values can stand only once.

Legend:
[1] = xn = mol fraction of the nth substance listed

CCC12CC3CC(CC(C3)C1)C2
100 kPa
Details	viscosity [mPa·s]
293.15 K	6.43
298.15 K	5.606
303.15 K	4.931
308.15 K	4.365
313.15 K	3.887

CC(C)CC(=O)CC(C)C
100 kPa
Details	viscosity [mPa·s]
293.15 K	0.95
298.15 K	0.905
303.15 K	0.86
308.15 K	0.81
313.15 K	0.76
318.15 K	0.72
323.15 K	0.67

CCCC[n+]1ccccc1.F[B-](F)(F)F
101.3 kPa
Details	viscosity
293.15 K	223 mPa·s and 223.1 mPa·s
298.15 K	163 mPa·s and 163.3 mPa·s
303.15 K	121 mPa·s and 123 mPa·s
308.15 K	92.8 mPa·s and 94.21 mPa·s
313.15 K	72.3 mPa·s and 70.29 mPa·s
318.15 K	57.4 mPa·s and 55.81 mPa·s
323.15 K	46.3 mPa·s and 45.12 mPa·s

CCCCCCCCCCCCCC[P+](CCCCCC)(CCCCCC)CCCCCC.c1nnc[n-]1
100 kPa
Details	viscosity [mPa·s]
293.15 K	1320
298.15 K	918
303.15 K	654
308.15 K	477
313.15 K	354
318.15 K	269
323.15 K	209

CCCCCCO
viscosity
Details	100 kPa	101 kPa	101.3 kPa	101.33 kPa
293.15 K	5.36 mPa·s and 5.363 mPa·s and 5.273 mPa·s	4.963 mPa·s	5.361 mPa·s	4.993 mPa·s
298 K	4.502 mPa·s	–	–	–
298.15 K	4.45 mPa·s	–	4.342 mPa·s and 4.403 mPa·s	–
303 K	–	–	–	3.82 mPa·s
303.15 K	3.883 mPa·s	–	3.69 mPa·s	–
308 K	–	–	–	3.3 mPa·s
308.15 K	–	–	3.139 mPa·s and 3.604 mPa·s	–
313 K	–	2.903 mPa·s	–	2.87 mPa·s and 2.82 mPa·s
313.15 K	2.9 mPa·s and 2.896 mPa·s	2.86 mPa·s and 3.451 mPa·s and 2.934 mPa·s	–	–
318.15 K	2.571 mPa·s and 2.656 mPa·s	2.397 mPa·s and 2.656 mPa·s	2.655 mPa·s	2.601 mPa·s
323 K	–	–	–	2.183 mPa·s
323.15 K	2.2 mPa·s	2.072 mPa·s	–	2.267 mPa·s

O=C1CCCCC1
Details	viscosity
293.15 K, 101.3 kPa	2.546 mPa·s
293.15 K, 101.33 kPa	2.315 mPa·s
298.15 K, 101.3 kPa	1.963 mPa·s
303.15 K, 101.3 kPa	1.768 mPa·s and 1.915 mPa·s
308.15 K, 101 kPa	1.631 mPa·s and 1.632 mPa·s and 1.632 mPa·s
308.15 K, 101.3 kPa	1.602 mPa·s and 1.585 mPa·s
313.15 K, 100 kPa	1.481 mPa·s
313.15 K, 101 kPa	1.476 mPa·s and 1.476 mPa·s and 1.481 mPa·s
318.15 K, 100 kPa	1.285 mPa·s
318.15 K, 101 kPa	1.285 mPa·s and 1.373 mPa·s and 1.373 mPa·s
318.15 K, 101.33 kPa	1.311 mPa·s

CCCCCC(=O)O
Details	viscosity [mPa·s]
298.15 K, 101 kPa	2.814
323.15 K, 101.33 kPa	1.762

OCCOc1ccccc1
101 kPa
Details	viscosity [mPa·s]
303.15 K	12.86
313.15 K	9.235
323.15 K	5.927

CC(C)CC(C)(C)C
viscosity
Details	293.15 K	298.15 K	303.15 K	308.15 K	313.15 K	318.15 K	323.15 K
100 kPa	–	0.492 mPa·s	–	0.45 mPa·s	0.431 mPa·s	–	–
101 kPa	0.498 mPa·s	–	0.451 mPa·s and 0.445 mPa·s	0.428 mPa·s and 0.427 mPa·s	–	0.378 mPa·s	0.364 mPa·s and 0.3593 mPa·s
101.33 kPa	–	0.462 mPa·s and 0.492 mPa·s and 0.4842 mPa·s	–	0.412 mPa·s and 0.441 mPa·s	0.391 mPa·s and 0.4056 mPa·s	0.381 mPa·s and 0.3848 mPa·s	–

CC=Cc1ccc2c(c1)OCO2
Details	viscosity [mPa·s]
298.15 K, 101 kPa	3.981

CCS
Details	viscosity [mPa·s]
298.15 K, 101 kPa	0.2091

O=C(OCc1ccccc1)c1ccccc1O
Details	viscosity [mPa·s]
303.15 K, 101 kPa	6.722

CCOCC
viscosity
Details	293.15 K	298.15 K	303.15 K	303.16 K
101 kPa	0.239 mPa·s	–	0.212 mPa·s	0.2193 mPa·s and 0.2193 mPa·s
101.33 kPa	0.25 mPa·s	0.225 mPa·s	–	–

CCC(C)N (stereo not drawn)
viscosity
Details	298.15 K	303.15 K	308.15 K	313.15 K	318.15 K	323.15 K
101 kPa	–	0.4024 mPa·s	0.3996 mPa·s and 0.3996 mPa·s	–	–	–
101.33 kPa	0.4176 mPa·s	0.3884 mPa·s	0.3659 mPa·s	0.3465 mPa·s	0.3274 mPa·s	0.3104 mPa·s

O=C1CCCCC1 + Cc1ccccc1
viscosity [mPa·s], [1]
Details	298.15 K	303.15 K	308.15 K
101 kPa, x1 = 0.1059	0.615	–	–
101 kPa, x1 = 0.2177	0.682	–	–
101 kPa, x1 = 0.3103	0.74	–	–
101 kPa, x1 = 0.4166	0.829	–	–
101 kPa, x1 = 0.5047	0.884	–	–
101 kPa, x1 = 0.6049	0.971	–	–
101 kPa, x1 = 0.7171	1.218	–	–
101 kPa, x1 = 0.7943	1.333	–	–
101 kPa, x1 = 0.9041	1.574	–	–
101 kPa, x2 = 0.1021	–	1.396	–
101 kPa, x2 = 0.202	–	1.218	–
101 kPa, x2 = 0.3024	–	1.068	–
101 kPa, x2 = 0.4051	–	0.9428	–
101 kPa, x2 = 0.4964	–	0.8546	–
101 kPa, x2 = 0.6017	–	0.753	–
101 kPa, x2 = 0.6963	–	0.6911	–
101 kPa, x2 = 0.8022	–	0.6292	–
101.33 kPa, x1 = 0.1032	0.61	0.573	0.543
101.33 kPa, x1 = 0.1997	0.668	0.625	0.59
101.33 kPa, x1 = 0.3024	0.738	0.689	0.648
101.33 kPa, x1 = 0.4055	0.824	0.767	0.721
101.33 kPa, x1 = 0.504	0.922	0.854	0.799
101.33 kPa, x1 = 0.602	1.043	0.972	0.903
101.33 kPa, x1 = 0.7012	1.194	1.103	1.02
101.33 kPa, x1 = 0.7999	1.391	1.273	1.183
101.33 kPa, x1 = 0.9027	1.654	1.505	1.382
